Where a name gives a salt, the structure may show the parent alone. Read-outs that look alike come from different tables or passages of the source.

Assay [1] deals with T1, activated human C1 (Homo sapiens, UniProt P09871).
T1 sequence (P09871 16-437 limits assumed): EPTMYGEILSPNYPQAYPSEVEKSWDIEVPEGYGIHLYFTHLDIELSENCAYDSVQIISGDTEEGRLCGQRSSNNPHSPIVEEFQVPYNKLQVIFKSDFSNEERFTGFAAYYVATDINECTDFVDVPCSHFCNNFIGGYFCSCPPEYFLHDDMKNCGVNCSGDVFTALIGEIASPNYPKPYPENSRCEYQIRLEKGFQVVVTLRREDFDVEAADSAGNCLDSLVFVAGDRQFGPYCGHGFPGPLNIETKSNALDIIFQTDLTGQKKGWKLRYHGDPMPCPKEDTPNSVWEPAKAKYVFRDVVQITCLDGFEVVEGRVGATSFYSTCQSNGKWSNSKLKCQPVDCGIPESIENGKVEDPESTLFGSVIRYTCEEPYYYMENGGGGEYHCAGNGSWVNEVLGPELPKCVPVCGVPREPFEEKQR
T1 sequence (P09871 438-688 limits assumed): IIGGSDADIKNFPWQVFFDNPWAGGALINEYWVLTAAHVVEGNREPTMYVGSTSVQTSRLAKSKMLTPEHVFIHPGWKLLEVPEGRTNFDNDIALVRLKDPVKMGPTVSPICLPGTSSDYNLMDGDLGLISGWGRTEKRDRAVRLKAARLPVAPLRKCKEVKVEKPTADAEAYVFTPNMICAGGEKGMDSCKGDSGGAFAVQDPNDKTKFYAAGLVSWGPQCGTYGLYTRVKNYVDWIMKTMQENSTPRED
Put plainly: Test Code 026 (C1 inhibitor). Format: biochemical. Conditions: serial dilutions are twofold; higher well number indicates higher activity. As to the method:
(§1) An active inhibitor protects C2 from C1 and C4; (ii) Cap 50 Test--Here, appropriate amounts of the test compound are added to a pool of guinea pig serum in vitro, after which the undiluted serum capillary tube assay referred to above is run. The concentration of compound inhibiting 50% is reported; and (iii) Guinea Pig Intraperitoneal Test (GPIP)--Guinea pigs weighing about 300 g. are dosed intraperitoneally (i.p.) with 200 mg./kg. of the test compound dissolved in saline and adjusted to pH 7-8. Approximately 0.4 ml. blood samples, taken by orbital sinus puncture 30 minutes and one hour after injections, are collected directly into centrifuge tubes; 5 ml. blood samples, taken by decapitation 2 hours after injection are collected directly into beakers. The samples are allowed to clot, centrifuged, and the resultant sera are assayed for complement activity using the capillary complement assay. Percent inhibition are calculated by comparison with simultaneous controls.

Assay [2] deals with human serum complement. Conditions: in vitro and in vivo; cited from earlier work.
In assay [3] the test system is complement activity of sera. Description: Guinea Pig Intraperitoneal Test (GPIP). Conditions: Cavia porcellus, ip, 200 mg./kg. i.p., read-out: In vivo Activity (Guinea Pig) Intraperitoneal % Inhibition. As for the experimental part: as §1, with “[…],” for “taken by orbital sinus puncture 30 minutes and one hour after injections,”, “taken by decapitation 2 hours after injection are collected directly into” left out

For the molecule `C[C@@H]1O[C@@H](OC[C@H]2O[C@@H](Oc3c(-c4ccc(OCC(=O)O)c(OS(=O)(=O)O)c4)oc4cc(OCC(=O)O)cc(OS(=O)(=O)O)c4c3=O)[C@H](OS(=O)(=O)O)[C@@H](OS(=O)(=O)O)[C@@H]2OS(=O)(=O)O)[C@H](OS(=O)(=O)O)[C@H](OS(=O)(=O)O)[C@H]1OS(=O)(=O)O` [4',7-Bis(carboxymethyl)rutin, octa(H-sulfate), decasodium salt], the “In vitro Activity 026 (activity in wells, serial dilution assay)” value in assay [1] came out at 11 wells.

Turning to pentosanpolysulfoester, in assay [2], the anticomplementary activity entry is “has an anticomplementary activity on human serum, both in vitro and in vivo”.

As usually defined, the inhibition is how much of the control response was suppressed. In the case of `C[C@@H]1O[C@@H](OC[C@H]2O[C@@H](Oc3c(-c4ccc(OCC(=O)O)c(OS(=O)(=O)O)c4)oc4cc(OS(=O)(=O)O)cc(OS(=O)(=O)O)c4c3=O)[C@H](OS(=O)(=O)O)[C@@H](OS(=O)(=O)O)[C@@H]2OS(=O)(=O)O)[C@H](OS(=O)(=O)O)[C@H](OS(=O)(=O)O)[C@H]1OS(=O)(=O)O` [4'-Carboxymethyl-rutin, nona(H-sulfate)decasodium salt], the “In vitro Activity 026 (activity in wells, serial dilution assay)” value in assay [1] was found to be 10 wells. The inhibition at 200 mg/kg in assay [3] (Time 2 hours) came to 82%; in assay [3] (Time 6 hours) it was 69%; in assay [3] (Time 24 hours) it was 18%.

(Values after patent US4342753A, “Carboxyalkyl derivatives of rutin poly(H-)sulfate” (American Cyanamid Company, priority 1981, dated 1982).)
